Reference: patent US20090156477A1, “Compositions and Methods for Regulating Inflammatory Responses” (Massachusetts Institute of Technology, priority 2005, published 2009)

B1: FGF7: Recombinant human FGF7 from Sigma (protein, UniProt P21781 32-194, looked up)
Fibroblast growth factor 7: CNDMTPEQMATNVNCSSPERHTRSYDYMEGGDIRVRRLFCRTQWYLRIDKRGKVKGTQEMKNNYNIMEIRTVAVGIVAIKGVESEFYLAMNKEGKLYAKKECNEDCNFKELILENHYNTYASAKWTHNGGEMFVALNQKGIPVRGKKTKKEQKTAHFLPMAIT

What was measured:
Assay type in all cases: cell-based, human
caveolin-1 = assay: Immunohistochemistry for caveolin-1 in Caco-2 cells; conditions: four hours after administration
Description: (§1) Caco-2 cells were grown to just prior to confluency on collagen IV coated glass slides. Cells were treated with PBS, FGF1, FGF2 and FGF7, and were incubated at 37° C. in a 5% CO2 humidified incubator for 1 hour, 4 hours, 24 hours or 48 hours, as noted. Cells were washed with PBS, fixed with 3.7% formalin for 10 minutes and washed again with PBS. Cells were treated with 0.1% Triton x-100 for 5 minutes to extract lipids. Cells were washed with PBS and preincubated with PBS supplemented with 1% bovine serum albumin. Primary antibodies were added for 4 hours at room temperature, and cells were washed with PBS. […]
(§2) Cells, except those stained with phalloidin, were washed with PBS and stained with diamidino-2-phenylindole (DAPI) for 5 minutes at room temperature (Molecular Probes). […] Cells were examined by confocal microscopy (ZO-1 and phalloidin only), or by fluorescence microscopy. A Nikon HB10101AF fluorescence microscope was used and images were captured at room temperature using a Hitachi HVC20 camera and Scion image acquisition software. […]

occludin and ZO-1 = assay: Immunostaining for occludin and ZO-1 in T84 cells; conditions: 100 ng/ml
Description: To determine occludin and ZO-1 expression patterns, cells were plated on transwells as described for TER assays. Media from the basolateral chamber was removed every other day and replaced with new media. Resistances were measured for 10 days, and either 100 ng/ml FGF2, 100 ng/ml FGF7 or 10 μl PBS were added on days 10 and 12. On day 15, media was removed from both the apical and basolateral chambers, and the apical chamber was washed twice with PBS. One ml of 1% (w/v) paraformaldehyde in cacodylate buffer was added to each well, the plates were incubated for 10 minutes at room temperature, and the wells were washed once in PBS. One ml permeabilization media, consisting of 0.2% Triton X-100 and 2% BSA in PBS, was added to each well. After a 10 minute incubation at room temperature, wells were washed three times. 20 μl primary antibodies (rabbit polyclonal anti-human or occludin rabbit polyclonal anti-human ZO-1) diluted 1:20 in 1% goat serum, 0.25% sodium azide in PBS, were added to the apical chamber of three wells per antibody per ligand, and plates were incubated for 1 hour in a humidified chamber. […] Staining was then visualized by fluorescence microscopy. […] A Nikon HB10101AF fluorescence microscope was used to capture images at room temperature using a Hitachi HVC20 camera and Scion image acquisition software.

f-actin = f-actin (phalloidin) staining in Caco-2 cells; conditions: Caco-2 monolayers
Description: as §1, §2

Molecule | caveolin-1 localization (caveolin-1) | membrane ruffling (tight junction protein staining) (occludin and ZO-1) | actin stress fiber formation (f-actin)
FGF1: Recombinant human FGF1 from Amgen | localized surrounding the nucleus | – | –
FGF2: Recombinant human FGF2, produced as described | – | induced ruffling of cell membranes | induced actin stress fiber formation
B1 | – | induced ruffling of cell membranes | induced actin stress fiber formation
